In patent US10065990B2, “Cyclic peptide compound, and preparation method, pharmaceutical composition and use thereof” (HANGZHOU GUANYU BIO-MEDICAL CO., LTD, priority 2013, dated 2018):
Like-named read-outs stand apart in the source and are kept apart here.

Key:
Experiment in all cases: HDAC biochemical activity measurement (fluorescent substrate deacetylation);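 for IC50 HDAC7: fluorogenic deacetylation assay using acetyl-lysine substrate at 20 µM, enzyme and compound incubated 30 min at 37 °C, then developer added, fluorescence read at 360/460 nm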
HDAC8 = target: T1, HDAC8 (Homo sapiens, UniProt Q9BY41); conditions: 37° C. 30 minutes
T1 sequence (Q9BY41 1-377): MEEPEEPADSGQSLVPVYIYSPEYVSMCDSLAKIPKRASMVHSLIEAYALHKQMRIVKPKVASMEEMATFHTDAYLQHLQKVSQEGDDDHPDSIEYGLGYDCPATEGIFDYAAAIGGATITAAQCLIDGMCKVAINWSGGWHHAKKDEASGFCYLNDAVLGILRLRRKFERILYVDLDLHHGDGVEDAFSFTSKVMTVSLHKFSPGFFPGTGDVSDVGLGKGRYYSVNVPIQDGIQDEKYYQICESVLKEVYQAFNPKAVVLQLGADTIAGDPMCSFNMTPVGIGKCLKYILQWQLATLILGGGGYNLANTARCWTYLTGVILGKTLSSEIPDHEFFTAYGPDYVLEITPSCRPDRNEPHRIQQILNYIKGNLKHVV
Protocol: The chemical activity of the compound is determined according to the degree of deacetylation inhibition of the HDAC enzyme. This experiment measured the degree of deacetylation related to tumor proliferation and metastasis of HDAC1, HDAC2, HDAC3, HDAC8, HDAC11 five subtypes HDAC enzymes. After the substrate containing an acetylated lysine side chain and HDAC enzyme are labeled with a fluorescent label, the fluorescent substrate is de acetyl. The fluorescent labeled substrate is cleaved by the enzyme, and the fluorescent substance is released, which generates 460 nm emission light under the excitation of 360 nm light.
HDAC substrate was diluted with reaction buffer to 200M (reaction concentration of 20M), the HDAC enzyme was diluted to the appropriate concentration, then added different concentrations of the test compounds and acted at 37° C. 30 minutes, and then added the same volume of 2-times concentration substrate developing solution (developer), incubated at room temperature for 15 minutes.

HDAC7 = target: T2, HDAC7 (Homo sapiens, UniProt Q8WUI4); conditions: HDAC7; 37° C. 30 minutes;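 note: fluorogenic deacetylation assay using acetyl-lysine substrate at 20 µM, enzyme and compound incubated 30 min at 37 °C, then developer added, fluorescence read at 360/460 nm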
T2 sequence (Q8WUI4 1-952): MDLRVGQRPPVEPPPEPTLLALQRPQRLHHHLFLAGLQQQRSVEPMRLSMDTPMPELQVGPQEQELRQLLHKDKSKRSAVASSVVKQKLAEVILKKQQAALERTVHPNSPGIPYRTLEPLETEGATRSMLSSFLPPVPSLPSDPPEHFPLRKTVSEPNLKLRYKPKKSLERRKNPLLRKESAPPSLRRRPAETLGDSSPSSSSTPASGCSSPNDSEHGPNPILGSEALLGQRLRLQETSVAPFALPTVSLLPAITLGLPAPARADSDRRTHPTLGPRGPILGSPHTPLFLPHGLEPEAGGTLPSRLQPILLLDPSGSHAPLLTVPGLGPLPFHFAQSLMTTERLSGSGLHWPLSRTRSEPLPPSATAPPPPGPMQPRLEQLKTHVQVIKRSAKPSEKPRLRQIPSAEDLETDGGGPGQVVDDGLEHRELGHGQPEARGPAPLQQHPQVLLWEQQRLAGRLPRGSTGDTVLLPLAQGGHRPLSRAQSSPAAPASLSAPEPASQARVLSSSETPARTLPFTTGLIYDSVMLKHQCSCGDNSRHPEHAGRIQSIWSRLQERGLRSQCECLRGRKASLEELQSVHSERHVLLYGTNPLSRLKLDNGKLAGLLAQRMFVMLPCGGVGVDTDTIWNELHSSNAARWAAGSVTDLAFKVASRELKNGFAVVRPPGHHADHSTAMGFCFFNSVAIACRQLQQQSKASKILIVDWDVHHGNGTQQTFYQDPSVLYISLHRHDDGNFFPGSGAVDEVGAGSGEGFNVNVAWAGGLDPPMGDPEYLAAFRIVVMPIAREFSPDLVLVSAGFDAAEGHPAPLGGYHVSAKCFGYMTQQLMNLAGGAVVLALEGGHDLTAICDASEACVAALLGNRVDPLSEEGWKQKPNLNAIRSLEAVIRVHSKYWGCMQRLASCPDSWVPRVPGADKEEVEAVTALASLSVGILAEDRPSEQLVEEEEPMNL

HDAC11 = target: T3, HDAC11 (Homo sapiens, UniProt Q96DB2);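 note: HDAC11 enzyme acting on an acetyl-lysine fluorogenic substrate, then a developer frees the fluorophore, read at excitation 360 nm and emission 460 nm, IC50 over a compound dilution series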
T3 sequence (Q96DB2 1-347): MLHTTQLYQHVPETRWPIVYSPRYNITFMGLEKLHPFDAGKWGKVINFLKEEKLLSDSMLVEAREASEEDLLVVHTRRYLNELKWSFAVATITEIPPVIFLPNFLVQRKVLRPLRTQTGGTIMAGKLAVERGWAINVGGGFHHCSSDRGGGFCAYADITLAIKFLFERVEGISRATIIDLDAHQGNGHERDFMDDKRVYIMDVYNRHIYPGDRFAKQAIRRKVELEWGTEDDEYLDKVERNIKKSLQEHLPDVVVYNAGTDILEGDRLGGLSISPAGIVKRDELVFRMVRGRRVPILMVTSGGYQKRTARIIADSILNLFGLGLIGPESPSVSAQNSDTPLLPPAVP

[1] = read-out: IC50 HDAC11, HDAC11, 37° C. 30 minutes

| IC50 (HDAC8) [nM] | IC50 HDAC7 (HDAC7) | IC50 (HDAC11; [1]) [nM] | IC50 (HDAC11) [nM] | Structure (SMILES) |
| --- | --- | --- | --- | --- |
| 61 | no activity | 89 |  | C/C=C1\NC(=O)c2nc(F)cc(n2)CNC(=O)C[C@@H](/C=C/CCSC(C)=O)OC(=O)[C@H](C(C)C)NC1=O [Compound 98] |
| 39 | no activity | 11 |  | C/C=C1\NC(=O)c2cccc(n2)CNC(=O)C[C@@H](/C=C/CCSC(C)=O)OC(=O)[C@H](C(C)C)NC1=O [Compound 7] |
| 19 | no activity |  | 83 | C/C=C1\NC(=O)c2cc(F)cc(n2)CCNC(=O)C[C@@H](/C=C/CCSC(C)=O)OC(=O)[C@H](C(C)C)NC1=O [Compound 104] |
| 59 | no activity |  | 152 | C/C=C1\NC(=O)c2nc(ccc2SC)CNC(=O)C[C@@H](/C=C/CCS)OC(=O)[C@H](C)NC1=O [Compound 232] |
| 34 | no activity |  | 99 | C/C=C1\NC(=O)c2nc(ccc2F)CNC(=O)C[C@@H](/C=C/CCSC(=O)CCCCCCC)OC(=O)[C@H](CC)NC1=O [Example 54] |
| 14 | no activity |  | 93 | C/C=C1\NC(=O)c2nc(ccc2F)CNC(=O)C[C@@H](/C=C/CCSC(C)=O)OC(=O)[C@H](C(C)C)NC1=O [Example 48] |
| 161 | no activity | 201 |  | C/C=C1\NC(=O)c2cccc(n2)CNC(=O)C[C@@H](/C=C/CCSC(=O)CCCC)OC(=O)[C@H](C(C)C)NC1=O [Compound 4] |
| 73 | no activity | 107 |  | C/C=C1\NC(=O)c2cccc(n2)CNC(=O)C[C@@H](/C=C/CCSC(C)=O)OC(=O)[C@H](Cc2ccc(O)cc2)NC1=O [Compound 18] |
| 29 | no activity |  | 91 | C/C=C1\NC(=O)c2nc(ccc2F)CNC(=O)C[C@@H](/C=C/CCSC(C)=O)OC(=O)[C@H](C)NC1=O [Example 63] |
| 53 | no activity |  | 88 | C/C=C1\NC(=O)c2nc(ccc2F)CNC(=O)C[C@@H](/C=C/CCSC(=O)CCCCCCC)OC(=O)[C@H](C)NC1=O [Example 60] |
| 453 | no activity | 276 |  | C/C=C1\NC(=O)c2nc(ccc2F)CNC(=O)C[C@@H](/C=C/CCSC(C)=O)OC(=O)[C@H](CCCCN)NC1=O [Compound 72] |
| 62 | no activity |  | 77 | C=C1NC(=O)c2cc(SC)cc(n2)CNC(=O)C[C@@H](/C=C/CCSC(C)=O)OC(=O)[C@H](C(C)C)NC1=O [Compound 205] |
| 67 | no activity | 72 |  | C/C=C1\NC(=O)c2cccc(n2)CNC(=O)C[C@@H](/C=C/CCSC(=O)CCCCCCC)OC(=O)[C@@H](C)NC1=O [Compound 236] |
| 38 | no activity | 83 |  | C/C=C1\NC(=O)c2cc(F)cc(n2)CNC(=O)C[C@@H](/C=C/CCSC(=O)CCCCCCC)OC(=O)[C@H](C)NC1=O [Compound 61] |
| 28 | no activity |  | 91 | C/C=C1\NC(=O)c2cc(F)cc(n2)CNC(=O)C[C@@H](/C=C/CCSC(C)=O)OC(=O)[C@H](C(C)C)NC1=O [Compound 94] |
| 43 | no activity | 77 |  | C/C=C1\NC(=O)c2cccc(n2)CNC(=O)C[C@@H](/C=C/CCSC(=O)CCCCCCC)OC(=O)[C@H](C(C)(C)C)NC1=O [Compound 237] |
